ChEMBL document CHEMBL1201862, “PubChem BioAssay data set” (2004)
One block for each molecule: values may come before it. The source made the active and inactive calls.

Columns and labels:
[1] = cytotoxicity toward NIH3T3 fibroblasts, dose response, counter-screen, cell-based, ATP luminescence, mouse fibroblasts (AID 2010); type: functional;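 note: cells exposed to compound for about 90 hours before reading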
Protein Wnt-3a = Protein Wnt-3a (Mus musculus, UniProt P27467); test: Wnt3a-driven reporter signaling inhibition, dose response, selectivity assay for Gli-SUFU antagonist project, Wnt-LIGHT cells, luminescence (AID 651570); type: functional; conditions: read-out: IC50_Mean;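 note: Wnt-LIGHT reporter cells stimulated with conditioned medium from Wnt3a-producing cells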
Protein Wnt-3a, sequence (P27467 whole entry): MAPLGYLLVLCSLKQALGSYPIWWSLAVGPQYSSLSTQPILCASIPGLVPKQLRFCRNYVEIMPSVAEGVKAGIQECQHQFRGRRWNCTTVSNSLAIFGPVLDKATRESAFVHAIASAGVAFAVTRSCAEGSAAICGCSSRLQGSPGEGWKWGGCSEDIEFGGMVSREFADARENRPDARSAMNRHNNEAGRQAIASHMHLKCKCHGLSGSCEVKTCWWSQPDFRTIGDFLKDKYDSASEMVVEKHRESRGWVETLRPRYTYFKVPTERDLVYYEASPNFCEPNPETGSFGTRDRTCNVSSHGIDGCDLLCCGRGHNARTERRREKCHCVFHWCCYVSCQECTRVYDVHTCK

[2] = inhibitors of intracellular T. cruzi replication, confirmation, NIH3T3 host cells, beta-gal luminescence (AID 2044); type: functional, cell-based;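 note: intracellular parasites grown in NIH/3T3 mouse fibroblasts as host cells; luminescent beta-galactosidase reporter signal from transgenic T. cruzi replicating inside host cells; inhibitors lower the luminescence signal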
[3] = biological target: T1, High affinity choline transporter 1 (Homo sapiens, UniProt Q9GZV3); test: CHT activators, dose response, cell-based, 10-point CRC, membrane potential dye (AID 602376); type: functional
T1 sequence (Q9GZV3 whole entry): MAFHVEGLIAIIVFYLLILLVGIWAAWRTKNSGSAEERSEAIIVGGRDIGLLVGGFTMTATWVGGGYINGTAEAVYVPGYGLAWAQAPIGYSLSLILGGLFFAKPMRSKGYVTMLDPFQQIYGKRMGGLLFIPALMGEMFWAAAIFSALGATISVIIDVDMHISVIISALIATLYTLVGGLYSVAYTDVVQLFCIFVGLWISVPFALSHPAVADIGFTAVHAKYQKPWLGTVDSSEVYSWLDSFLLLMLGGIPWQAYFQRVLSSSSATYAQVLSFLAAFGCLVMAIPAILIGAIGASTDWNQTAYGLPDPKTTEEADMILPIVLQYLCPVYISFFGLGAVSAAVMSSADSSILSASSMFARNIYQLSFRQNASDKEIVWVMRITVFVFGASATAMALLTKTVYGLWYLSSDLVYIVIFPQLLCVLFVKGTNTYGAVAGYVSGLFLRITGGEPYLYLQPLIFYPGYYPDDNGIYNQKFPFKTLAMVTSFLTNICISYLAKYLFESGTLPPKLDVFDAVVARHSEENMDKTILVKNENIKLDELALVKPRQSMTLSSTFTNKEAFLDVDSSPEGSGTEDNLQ

[4] = biological target: Potassium voltage-gated channel subfamily KQT member 2 (Rattus norvegicus, UniProt O88943); test: KCNQ2 potassium channel inhibitors, dose response, cell-based, automated electrophysiology, set II, rat KCNQ2 (AID 588637); type: functional
Potassium voltage-gated channel subfamily KQT member 2, sequence (O88943 whole entry): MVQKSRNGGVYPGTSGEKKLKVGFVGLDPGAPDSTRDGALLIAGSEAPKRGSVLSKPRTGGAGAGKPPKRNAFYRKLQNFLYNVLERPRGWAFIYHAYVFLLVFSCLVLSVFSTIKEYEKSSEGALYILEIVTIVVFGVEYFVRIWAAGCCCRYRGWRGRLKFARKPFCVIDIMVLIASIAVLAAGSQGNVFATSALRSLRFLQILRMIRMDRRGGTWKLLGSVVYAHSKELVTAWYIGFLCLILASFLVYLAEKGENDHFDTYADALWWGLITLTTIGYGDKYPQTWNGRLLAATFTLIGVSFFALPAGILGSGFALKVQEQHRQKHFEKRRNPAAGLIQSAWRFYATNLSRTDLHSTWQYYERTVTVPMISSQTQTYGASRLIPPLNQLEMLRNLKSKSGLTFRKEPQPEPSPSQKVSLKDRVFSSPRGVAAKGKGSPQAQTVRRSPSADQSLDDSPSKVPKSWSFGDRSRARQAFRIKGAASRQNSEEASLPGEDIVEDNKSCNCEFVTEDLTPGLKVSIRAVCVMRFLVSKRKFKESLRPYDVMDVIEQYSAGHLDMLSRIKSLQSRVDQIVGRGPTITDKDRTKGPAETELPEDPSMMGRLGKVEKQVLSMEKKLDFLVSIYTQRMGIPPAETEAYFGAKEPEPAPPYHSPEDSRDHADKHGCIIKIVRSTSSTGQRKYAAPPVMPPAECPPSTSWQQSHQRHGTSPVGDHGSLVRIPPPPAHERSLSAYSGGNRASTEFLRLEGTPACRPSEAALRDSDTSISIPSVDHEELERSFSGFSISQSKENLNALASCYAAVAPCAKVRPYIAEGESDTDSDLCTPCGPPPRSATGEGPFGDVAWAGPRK

[5] = biological target: T1, High affinity choline transporter 1; test: CHT inhibitors, dose response, cell-based, 5-point CRC, membrane potential dye (AID 504840); type: functional
[6] = biological target: T1, High affinity choline transporter 1; test: CHT inhibitors, dose response, cell-based, 10-point CRC, membrane potential dye (AID 588401); type: functional;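 note: membrane potential dye fluorescence of choline-evoked depolarization via CHT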
[7] = biological target: T2, Apoptotic protease-activating factor 1 (Homo sapiens, UniProt O14727); test: SAR analysis of small molecule Activators of Apaf-1 in a Fluorescent assay.; type: functional; conditions: read-out: EC50_Mean;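 note: caspase-3 cleavage of fluorogenic Rh110 DEVD substrate downstream of apoptosome activation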
T2 sequence (O14727 whole entry): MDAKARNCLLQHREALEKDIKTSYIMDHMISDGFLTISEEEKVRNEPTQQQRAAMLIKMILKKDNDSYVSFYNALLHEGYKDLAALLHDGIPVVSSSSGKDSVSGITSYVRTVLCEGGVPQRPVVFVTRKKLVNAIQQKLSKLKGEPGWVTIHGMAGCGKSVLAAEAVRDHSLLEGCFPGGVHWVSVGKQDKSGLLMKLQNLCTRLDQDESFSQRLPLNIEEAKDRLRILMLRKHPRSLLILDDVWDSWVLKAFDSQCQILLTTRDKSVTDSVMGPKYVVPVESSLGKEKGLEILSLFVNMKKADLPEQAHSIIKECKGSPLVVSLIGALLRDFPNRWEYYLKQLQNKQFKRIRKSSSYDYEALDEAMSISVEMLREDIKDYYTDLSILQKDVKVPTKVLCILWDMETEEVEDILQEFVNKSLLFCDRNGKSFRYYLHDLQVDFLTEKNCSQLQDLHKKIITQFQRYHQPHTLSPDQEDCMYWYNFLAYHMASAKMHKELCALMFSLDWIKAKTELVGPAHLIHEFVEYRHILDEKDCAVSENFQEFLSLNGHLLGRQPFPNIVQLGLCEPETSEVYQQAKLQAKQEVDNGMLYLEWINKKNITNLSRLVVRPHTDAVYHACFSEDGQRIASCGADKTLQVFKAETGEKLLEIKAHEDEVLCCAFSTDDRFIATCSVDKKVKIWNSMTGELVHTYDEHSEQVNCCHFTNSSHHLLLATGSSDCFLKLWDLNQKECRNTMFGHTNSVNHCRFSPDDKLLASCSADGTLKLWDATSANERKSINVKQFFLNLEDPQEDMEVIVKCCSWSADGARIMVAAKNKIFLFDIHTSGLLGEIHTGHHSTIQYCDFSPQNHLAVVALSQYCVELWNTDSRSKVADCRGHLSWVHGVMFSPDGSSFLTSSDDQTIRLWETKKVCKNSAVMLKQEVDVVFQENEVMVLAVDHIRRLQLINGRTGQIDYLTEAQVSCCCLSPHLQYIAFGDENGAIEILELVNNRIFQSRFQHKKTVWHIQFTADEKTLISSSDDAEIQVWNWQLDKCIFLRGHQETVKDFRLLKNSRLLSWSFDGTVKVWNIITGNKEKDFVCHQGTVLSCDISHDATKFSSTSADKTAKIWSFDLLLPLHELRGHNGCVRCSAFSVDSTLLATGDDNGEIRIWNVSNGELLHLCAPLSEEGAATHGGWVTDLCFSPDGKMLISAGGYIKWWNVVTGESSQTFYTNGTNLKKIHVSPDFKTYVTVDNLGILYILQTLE

SMILES: N=c1c2c(n(Cc3ccc(F)cc3)c3c1CCC3)CCCC2
EC50 [1]: > 60 µM (not active)
IC50 (Protein Wnt-3a): 13.8 µM (active)
EC50 [2]: 0.639 µM (active)

SMILES: COc1ccc(S(=O)(=O)N2c3ccccc3OCC2C)cc1 (stereo not drawn)
EC50 [3]: 13.9 µM (active)

SMILES: CC1CCN(C(=O)Cn2c(=O)n(Cc3ccc4c(c3)OCO4)c(=O)c3ccccc32)CC1
IC50 [4]: 3.11 µM (active)

Results, then the molecule that gave them:

IC50 [5]: 8.64 µM (active)
IC50 [6]: 4.22 µM (active)
SMILES: CCN1CCCC1CNC(=O)c1ccc2c(c1)N(Cc1cccc(Cl)c1)C(=O)c1ccccc1S2(=O)=O (stereo not drawn)

EC50 [7]: > 100 µM (inactive)
SMILES: Cc1cc(NC(=O)C2CC(c3ccc(F)cc3)=NO2)n(-c2ccccc2)n1 (stereo not drawn)
